Laboratory results as given in paper PMC11524583, “Neurons enhance blood–brain barrier function via upregulating claudin-5 and VE-cadherin expression due to glial cell line-derived neurotrophic factor secretion” (eLife, 2024).
Several values for one entry are separate records, joined by “and”; a condition that tells them apart may be missing. Equal entries are not always repeated. Where two headings read alike, the source gives them in different places. Marks after values point to notes of the source that are not given here.

Experiments:
[1] = unbound fraction in brain, cited from earlier work
[2] = tested on: hCMEC/D3 mono-culture BBB model; details: human
in vitro [3] = details: human
in vitro [4] = details: human; remark: listed apart in the source
[5] = tested on: triple co-culture BBB model (hCMEC/D3, U251 and SH-SY5Y cells); experiment: In vitro BBB permeability study (Papp), triple co-culture BBB model; details: Triple co-culture BBB model; for PS: PS worked out from mean Papp
[6] = in situ brain perfusion in rodents, published permeability multiplied by VSA 150 cm^2/g, cited from earlier work
[7] = tested on: hCMEC/D3 mono-culture BBB model; experiment: In vitro BBB permeability study (Papp), hCMEC/D3 mono-culture BBB model; details: for PS: PS worked out from mean Papp
claudin-5 = experiment: Western blot of claudin-5 expression in hCMEC/D3 cells; assay type: cell-based, Homo sapiens; details: for GDNF-induced claudin-5 expression: 200 pg/ml GDNF, 3 μM SPP-86, 5 μM PP2, 3 μM LY294002, 2 μM U0126, 5 μM SP600125, 2 μM SB203580, anti-GDNF antibody 0.25, 0.5, 1.0 μg/ml; for Claudin-5/β-actin Relative Expression, Mean / Claudin-5/β-actin Relative Expression: Figure 2G; for Claudin-5/β-actin Relative Expression, Mean: Con = 1.000; for Claudin-5/β-actin Relative Expression: relative to Con, single replicates
Method: (§1) Whole-cell and tissue lysates, nucleoprotein, and cytoplasmic protein were prepared using RIPA Lysis Buffer (Beyotime, Shanghai, China) as the described method ([Wu et al., 2021]). Proteins were separated through sodium dodecyl sulfate–polyacrylamide gel electrophoresis and transferred onto nitrocellulose or polyvinylidene difluoride membranes. The membranes were blocked with 5% skim milk and incubated with corresponding primary antibodies at 4°C overnight. After being washed with Tris-buffered saline Tween buffer, the membranes were incubated with secondary antibodies (Cell Signaling Technology, MA, USA) at 1:3000 dilution: Anti-mouse IgG, HRP-linked Antibody (#7076), Anti-rabbit IgG, HRP-linked Antibody (#7074). Protein levels were visualized using a highly sensitive ECL western blotting substrate and a gel imaging system (Tanon Science & Technology, Shanghai, China).
(§2) CM of U251 cells (U-CM), SH-SY5Y cells (S-CM), or co-culture of U251 and SH-SY5Y cells (US-CM) was prepared. U251 cells were seeded at the top of the insert membrane and suspended on 6-well plates seeded with differentiated SH-SY5Y cells to co-culture U251 cells with SH-SY5Y cells. The medium was collected every 24 hr. The CMs were subsequently used for hCMEC/D3 cell culture after filtrating with 0.2 μm filters for 144 hr. The levels of GDNF, bFGF, IGF-1, and TGF-β in CMs were measured using corresponding ELISA kits according to the manufacturers’ instructions.
(§3) Exogenous and endogenous GDNF in the medium was neutralized with anti-GDNF antibody (#AF-212-NA, R&D system, Minneapolis, MN, USA). 0.25, 0.5, and 1.0 μg/ml anti-GDNF antibody was added into the US-CM or medium containing 200 pg/ml GDNF, and then the medium was preincubated at 4°C for 1 hr. The hCMEC/D3 cells were incubated with 200 pg/ml GDNF or US-CM containing anti-GDNF antibody or not for 6 days, and then cell lysate was collected for western blot. The medium was replaced every 24 hr.
(§4) Here, hCMEC/D3 cells were plated in the plates or culture dishes at 6 × 10^4 cells/cm^2 and transfected with 10 nM of negative control or human FOXO1, ETS1, and CDH5 siRNA (Tsingke Biotechnology, Beijing, China) for 12 hr using Lipofectamine 3000 (Invitrogen, Carlsbad, CA, USA) reagent according to the manufacturer’s instructions. Cells were then incubated with a medium containing GDNF for 72 hr.
The plasmids encoding FOXO1 (EX-Z7404-M02) were constructed by GeneCopoeia (Rockville, MD, USA). The hCMEC/D3 cells were plated in plates or dishes at 6 × 10^4 cells/cm^2. They were subsequently transfected with 1 µg of negative control or plasmids encoding FOXO1 6 hr using Lipofectamine 3000 reagent according to the manufacturer’s instructions. Transfected cells were then incubated with the medium containing GDNF for 72 hr.

VE-cadherin = experiment: Western blot of VE-cadherin expression in hCMEC/D3 cells; assay type: cell-based, Homo sapiens; details: for GDNF-induced VE-cadherin expression: hCMEC/D3 cells, 200 pg/ml GDNF, 3 μM SPP-86, 5 μM PP2, 3 μM LY294002, 2 μM U0126, 5 μM SP600125, 2 μM SB203580, anti-GDNF antibody 0.25, 0.5, 1.0 μg/ml; for VE-cadherin/β-actin Relative Expression, Mean / VE-cadherin/β-actin Relative Expression: Figure 2G; for VE-cadherin/β-actin Relative Expression, Mean: Con = 1.000; for VE-cadherin/β-actin Relative Expression: relative to Con, single replicates
Method: as §1, §2, §3, §4

[8] = In vitro BBB permeability study (Papp), triple co-culture BBB model; details: human
[9] = In vitro BBB permeability study (Papp), hCMEC/D3 mono-culture BBB model; details: human
[10] = Papp, Triple, apical to basolateral, 30 min, 37°C, day 6, mean ± SEM, four biological replicates
[11] = Papp, Mono, apical to basolateral, 30 min, 37°C, day 6, mean ± SEM, four biological replicates

CC(NC(C)(C)C)C(=O)c1cccc(Cl)c1 (stereo not shown) [Bupropion]
fu, brain ([1]; ref Bhattacharya et al., 2021): 0.12^§
PSPre, Mono [2]: 1139.58 µL/min/g
Papp A→B at 30 min (in vitro [3]; Papp, Mono): 152 ± 2 nm/s
Papp A→B at 30 min (in vitro [4]; Papp, Triple): 113 ± 4.4 nm/s

CNCCC(Oc1ccc(C(F)(F)F)cc1)c1ccccc1 (stereo not shown) [Fluoxetine]
fu, brain ([1]; ref Liu et al., 2005): 0.00094
fu, brain ([1]; ref Maurer et al., 2005): 0.0023
fu, brain ([1]; ref Summerfield et al., 2007): 0.004^†

NCC1(CC(=O)O)CCCCC1 [Gabapentin]
fu, brain ([1]; ref Summerfield et al., 2007): 0.782^†
PSPre, Mono [2]: 192.77 µL/min/g
PS [5]: 101.05 µL/min/g
Papp A→B (in vitro [3]; Papp Mean, Mono-culture BBB Model, mean of 4 replicates): 167 nm/s
PSObs ([6]; ref Summerfield et al., 2007): 162.90^† μl/min/g
Papp A→B (in vitro [4]; [10]): 87.8 ± 2.3 nm/s
PS ([7]; Mono-culture BBB Model): 192.77 µL/min/g

Nc1nnc(-c2cccc(Cl)c2Cl)c(N)n1 [Lamotrigine]
fu, brain ([1]; ref Summerfield et al., 2007): 0.273^†

Cc1ncc2n1-c1ccc(Cl)cc1C(c1ccccc1F)=NC2 [Midazolam]
fu, brain ([1]; ref Kodaira et al., 2011): 0.045^‡ ‡
PSPre, Mono [2]: 5060.00 µL/min/g
PS [5]: 3818.00 µL/min/g
Papp A→B (in vitro [3]; [11]): 253 ± 10 nm/s
PSObs ([6]; ref Summerfield et al., 2007): 2727.00^† μl/min/g
Papp A→B (in vitro [4]; Papp Mean, Triple co-culture BBB model, mean of 4 replicates): 191 nm/s
Papp A→B (in vitro [4]; [10]): 191 ± 2.4 nm/s
PS ([7]; Mono-culture BBB Model): 5060.00 µL/min/g

Cc1cc2c(s1)Nc1ccccc1N=C2N1CCN(C)CC1 [Olanzapine]
fu, brain ([1]; ref Summerfield et al., 2007): 0.034^†
PSObs ([6]; ref Summerfield et al., 2007): 2279.70^† μl/min/g

COc1cc2nc(N3CCN(C(=O)c4ccco4)CC3)nc(N)c2cc1OC [Prazosin]
Papp A→B at 30 min (in vitro [3]; Papp (individual replicate)): 45.6 nm/s
PSObs ([6]; ref Di Marco et al., 2019): 169.20^¶ ¶ μl/min/g

Cc1nc2n(c(=O)c1CCN1CCC(c3noc4cc(F)ccc34)CC1)CCCC2 [Risperidone]
PSObs ([6]; ref Summerfield et al., 2007): 849.60^† μl/min/g

C[S+]([O-])c1ccc(-c2nc(-c3ccncc3)c(-c3ccc(F)cc3)[nH]2)cc1 (stereo not shown) [SB203580, reference compound]
GDNF-induced claudin-5 expression (claudin-5; hCMEC/D3 cells): almost no effect
GDNF-induced VE-cadherin expression (VE-cadherin): almost no effect

Oc1c2ccccc2c2c3c(cccc13)N=N2 [SP600125, reference compound]
GDNF-induced claudin-5 expression (claudin-5; hCMEC/D3 cells): almost no effect
GDNF-induced VE-cadherin expression (VE-cadherin): almost no effect

COc1ccc(C(CN(C)C)C2(O)CCCCC2)cc1 (stereo not shown) [Venlafaxine]
fu, brain ([1]; ref Esaki et al., 2019): 0.205^*
Papp A→B at 30 min ([8]; Papp (individual replicate), Triple co-culture BBB model, single replicate values (4 per drug)): 74.8 nm/s
Papp A→B at 30 min [8, 10]: 82.5 ± 3.6 nm/s
PS [5]: 362.02 µL/min/g
Papp A→B ([5]; read-out: Papp (individual replicate), single replicate values (4 per drug)): 85 nm/s and 92.9 nm/s and 77.2 nm/s
Papp A→B at 30 min ([9]; Papp (individual replicate), Mono-culture BBB Model, single replicate values (4 per drug)): 103 nm/s
Papp A→B at 30 min [9, 11]: 95.8 ± 2.8 nm/s
PS ([7]; Mono-culture BBB Model): 420.60 µL/min/g
PSPre, Mono ([7]; PSPre = Papp×60×VSA×1000/fu,brain, VSA 150 cm^2/g, from Papp, Mono): 420.60 µL/min/g
Papp A→B ([7]; read-out: Papp (individual replicate), Mono-culture BBB Model, single replicate values (4 per drug)): 87.4 nm/s and 95.2 nm/s and 97.5 nm/s

TGF-β
Claudin-5/β-actin Relative Expression, Mean (claudin-5; 0.5 ng): 0.967
Claudin-5/β-actin Relative Expression (claudin-5; 0.5 ng): 0.910 and 1.017 and 1.003 and 0.937
Claudin-5/β-actin Relative Expression, Mean (claudin-5; 2 ng): 0.982
Claudin-5/β-actin Relative Expression (claudin-5; 2 ng): 0.870 and 1.019 and 1.090 and 0.947
Claudin-5/β-actin Relative Expression, Mean (claudin-5; 5 ng): 0.716
Claudin-5/β-actin Relative Expression (claudin-5; 5 ng): 0.653 and 0.618 and 0.959 and 0.634
claudin-5 expression (claudin-5; hCMEC/D3 cells, high level (5 ng/ml) of TGF-β): slightly downregulated
VE-cadherin/β-actin Relative Expression, Mean (VE-cadherin; 0.5 ng): 1.041
VE-cadherin/β-actin Relative Expression (VE-cadherin; 0.5 ng): 1.060 and 0.953 and 1.005 and 1.147
VE-cadherin/β-actin Relative Expression, Mean (VE-cadherin; 2 ng): 1.010
VE-cadherin/β-actin Relative Expression (VE-cadherin; 2 ng): 0.849 and 1.087 and 1.125 and 0.979
VE-cadherin/β-actin Relative Expression, Mean (VE-cadherin; 5 ng): 0.834
VE-cadherin/β-actin Relative Expression (VE-cadherin; 5 ng): 0.847 and 0.832 and 0.952 and 0.705
